Measured values taken from patent publication US9394305B2, “Substituted imidazo[1,2-a]pyridine compounds as tropomyosin receptor kinase a (TrkA) inhibitors” (Dr. Reddy's Laboratories Ltd., priority 2014, dated 2016).
Where two headings read alike, the source gives them in different places.

Target: T1, TrkA kinase (Homo sapiens, UniProt P04629)
T1 construct: purchased Upstate, USA
Experiment: In vitro TrkA inhibitory activity using TR-FRET assay
Assay type: biochemical
Protocol: Compounds were screened in the TR-FRET assay with TrkA kinase. 5 ng of TrkA [Upstate, USA] kinase was used for assay. The compound was incubated with the kinase for 30 minutes at 20-35° C. After the incubation, substrate mix [40 nM Ultra light poly GT (Perkin Elmer, USA) and 500 μM ATP] was added. The above reaction was stopped by the addition of 40 mM EDTA after 30 minutes. The Eu-labelled antiphospho-tyrosine antibody [Perkin Elmer, USA] was added at 0.5 nM and the fluorescence emission at 615 nm/665 nm [excitation at 340 nm] was measured. The compounds were initially screened at 100 nM, 1 μM and 10 μM concentrations. The potent compounds with >25% inhibition at 1 μM of TrkA were taken for the full dose response studies. The final DMSO concentration in the assay was […]. For IC50 determination, ⅓^rd serial dilution was made from the 20 mM DMSO stock solution. 2 μl of these were transferred to the test wells containing 20 μl reaction mixture [Total reaction volume 22 μl]. The fluorescence was measured in Perkin Elmer Wallac 1420 Multilabel Counter Victor 3. The IC50 was determined by fitting the dose response data to a sigmoidal curve fitting equation using GraphPad Prism software version 5.

[1] = 5 ng TrkA, 500 μM ATP, values given as bins, read-out: TrkA inhibition in-vitro IC50
[2] = 5 ng TrkA, 500 μM ATP, values given as bins, read-out: TrkA inhibitory activity in-vitro IC50

T1 sequence (P04629 33-796): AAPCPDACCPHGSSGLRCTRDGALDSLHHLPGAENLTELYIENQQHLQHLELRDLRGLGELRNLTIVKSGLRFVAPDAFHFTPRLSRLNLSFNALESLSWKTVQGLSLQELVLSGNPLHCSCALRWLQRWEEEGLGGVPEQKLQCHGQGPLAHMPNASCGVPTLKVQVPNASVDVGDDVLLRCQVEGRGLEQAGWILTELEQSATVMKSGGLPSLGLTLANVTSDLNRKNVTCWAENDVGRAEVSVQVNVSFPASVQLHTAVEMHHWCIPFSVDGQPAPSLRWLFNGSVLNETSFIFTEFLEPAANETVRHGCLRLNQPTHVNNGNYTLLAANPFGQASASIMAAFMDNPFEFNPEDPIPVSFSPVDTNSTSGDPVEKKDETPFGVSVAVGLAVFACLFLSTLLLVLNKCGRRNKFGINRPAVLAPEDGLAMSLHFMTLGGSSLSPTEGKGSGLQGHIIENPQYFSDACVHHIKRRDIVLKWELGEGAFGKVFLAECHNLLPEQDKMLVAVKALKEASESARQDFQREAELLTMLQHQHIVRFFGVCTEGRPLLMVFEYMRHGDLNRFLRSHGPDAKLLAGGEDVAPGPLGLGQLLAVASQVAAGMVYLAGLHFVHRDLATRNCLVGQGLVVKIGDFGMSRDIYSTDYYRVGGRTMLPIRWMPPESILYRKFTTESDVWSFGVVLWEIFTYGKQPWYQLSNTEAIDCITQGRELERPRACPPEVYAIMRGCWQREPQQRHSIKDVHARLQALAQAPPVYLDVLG

Structure (SMILES)	IC50 [1] [nM]	other results
O=C(NC1CCOCC1)c1cnc2ccc(N3CCC[C@@H]3c3cc(F)ccc3F)cn12 [Example 30, (R)-6-(2-(2,5-difluorophenyl)pyrrolidin-1-yl)-N-(tetrahydro-2H-pyran-4-yl)imidazo[1,2-a]pyridine-3-carboxamide]	100 to 500	
O=C(c1ccc(F)cc1)c1cnc2ccc(N3CCCC3c3cc(F)ccc3F)cn12 (centres unmarked) [Example 10, (6-(2-(2,5-difluorophenyl)pyrrolidin-1-yl)imidazo[1,2-a]pyridin-3-yl)(4-fluorophenyl)methanone]	50 to 100	
CC1(O)CN(C(=O)c2cnc3ccc(N4CCC[C@@H]4c4cc(F)ccc4F)cn23)C1 [Example 26, (R)-(6-(2-(2,5-difluorophenyl)pyrrolidin-1-yl)imidazo[1,2-a]pyridin-3-yl)(3-hydroxy-3-methylazetidin-1-yl)methanone]		IC50 (bin with mixed units (lower bound nM, upper bound μM), read-out: TrkA inhibitory activity in-vitro IC50): 500 to 1000 nM
COCCN(C)S(=O)(=O)NC(=O)c1cnc2ccc(N3CCC[C@@H]3c3cc(F)ccc3OC3CCOCC3)cn12 [Example 82, (R)-6-(2-(5-fluoro-2-((tetrahydro-2H-pyran-4-yl)oxy)phenyl)pyrrolidin-1-yl)-N—(N-(2-methoxyethyl)-N-methylsulfamoyl)imidazo[1,2-a]pyridine-3-carboxamide]	50 to 100	
CN(CCF)S(=O)(=O)NC(=O)c1cnc2ccc(N3CCCC3c3cc(F)cc4c3OCCO4)cn12 (single isomer, unassigned) [Example 71, 6-(2-(7-fluoro-2,3-dihydrobenzo[b][1,4]dioxin-5-yl)pyrrolidin-1-yl)-N-(N-(2-fluoroethyl)-N-methylsulfamoyl)imidazo[1,2-a]pyridine-3-carboxamide]	100 to 500	
CN(c1cccnc1)S(=O)(=O)NC(=O)c1cnc2ccc(N3CCC[C@@H]3c3cc(F)ccc3F)cn12 [Example 43, (R)-6-(2-(2,5-difluorophenyl)pyrrolidin-1-yl)-N-(N-methyl-N-(pyridin-3-yl)sulfamoyl)imidazo[1,2-a]pyridine-3-carboxamide]	≤ 50	
O=C(NS(=O)(=O)c1ccc(N2CC[C@H](O)C2)nc1)c1cnc2ccc(N3CCCCC3c3cc(F)ccc3F)cn12 (stereo partly drawn) [Example 51, 6-(2-(2,5-difluorophenyl)piperidin-1-yl)-N-((6-((S)-3-hydroxypyrrolidin-1-yl)pyridin-3-yl)sulfonyl)imidazo[1,2-a]pyridine-3-carboxamide]		IC50 [2]: 1000 to 10000 nM
CC1(S(=O)(=O)NC(=O)c2cnc3ccc(N4CCCC4c4cc(F)cc5c4OCCO5)cn23)CC1 (centres unmarked) [Example 50, 6-(2-(7-fluoro-2,3-dihydrobenzo[b][1,4]dioxin-5-yl)pyrrolidin-1-yl)-N-((1-methylcyclopropyl)sulfonyl)imidazo[1,2-a]pyridine-3-carboxamide]	100 to 500	
O=C(NC(CO)CO)c1cnc2ccc(N3CCCC3c3cc(F)ccc3F)cn12 (centres unmarked) [Example 5, 6-(2-(2,5-difluorophenyl)pyrrolidin-1-yl)-N-(1,3-dihydroxypropan-2-yl)imidazo[1,2-a]pyridine-3-carboxamide]	≤ 50	
CC(C)(C)S(=O)(=O)NC(=O)c1cnc2ccc(N3C[C@@H](F)C[C@@H]3c3cc(F)ccc3OCCF)cn12 [Example 58, N-(tert-butylsulfonyl)-6-((2R,4S)-4-fluoro-2-(5-fluoro-2-(2-fluoroethoxy)phenyl)pyrrolidin-1-yl)imidazo[1,2-a] pyridine-3-carboxamide]	≤ 50	
CN(c1cnccn1)S(=O)(=O)NC(=O)c1cnc2ccc(N3CCC[C@@H]3c3cc(F)ccc3F)cn12 [Example 45, (R)-6-(2-(2,5-difluorophenyl)pyrrolidin-1-yl)-N-(N-methyl-N-(pyrazin-2-yl)sulfamoyl)imidazo[1,2-a]pyridine-3-carboxamide]	≤ 50	
Cc1nnc(N(C)S(=O)(=O)NC(=O)c2cnc3ccc(N4C[C@@H](F)C[C@@H]4c4cc(F)ccc4OC4CCOCC4)cn23)s1 [Example 98, 6-((2R,4S)-4-fluoro-2-(5-fluoro-2-((tetrahydro-2H-pyran-4-yl)oxy)phenyl)pyrrolidin-1-yl)-N—(N-methyl-N-(5-methyl-1,3,4-thiadiazol-2-yl)sulfamoyl)imidazo[1,2-a]pyridine-3-carboxamide]	50 to 100	
CCOC(=O)CNC(=O)c1cnc2ccc(N3CCC[C@H]3c3cc(F)ccc3F)cn12 (single isomer, unassigned) [Example 18, Ethyl 2-(6-(2-(2,5-difluorophenyl)pyrrolidin-1-yl)imidazo[1,2-a]pyridine-3-carboxamido)acetate]	100 to 500	
CN(c1ccccn1)S(=O)(=O)NC(=O)c1cnc2ccc(N3C[C@@H](F)C[C@@H]3c3cc(F)ccc3O[C@@H]3CCOC3)cn12 [Example 103, 6-((2R,4S)-4-fluoro-2-(5-fluoro-2-(((R)-tetrahydrofuran-3-yl)oxy)phenyl)pyrrolidin-1-yl)-N—(N-methyl-N-(pyridin-2-yl)sulfamoyl)imidazo[1,2-a]pyridine-3-carboxamide]	≤ 50	
COCCN(C)S(=O)(=O)NC(=O)c1cnc2ccc(N3CCC[C@@H]3c3cc(F)ccc3F)cn12 [Example 39, (R)-6-(2-(2,5-difluorophenyl)pyrrolidin-1-yl)-N-(N-(2-methoxyethyl)-N-methylsulfamoyl)imidazo[1,2-a]pyridine-3-carboxamide]	≤ 50	
CN(C)C(=O)Nc1cnc2ccc(N3CCCC3c3cc(F)ccc3F)cn12 (centres unmarked) [Example 11, 3-(6-(2-(2,5-difluorophenyl)pyrrolidin-1-yl)imidazo[1,2-a]pyridin-3-yl)-1,1-dimethylurea]		IC50 [2]: 1000 to 10000 nM

Further lines, with some results ahead:

IC50 [1] [nM]	Structure (SMILES)	other results
≤ 50	O=C(c1cnc2ccc(N3CCCC3c3cc(F)ccc3F)cn12)N1CC(O)C1 (single isomer, unassigned) [Example 73, (6-(2-(2,5-difluorophenyl)pyrrolidin-1-yl)imidazo[1,2-a]pyridine-3 yl)(3-hydroxyazetidin-1-yl)methanone]	
≤ 50	COc1ccc(F)cc1[C@H]1CCCN1c1ccc2ncc(C(=O)NS(=O)(=O)N(C)CCF)n2c1 [Example 56, (R)-6-(2-(5-fluoro-2-methoxyphenyl)pyrrolidin-1-yl)-N-(N-(2-fluoroethyl)-N-methylsulfamoyl)imidazo[1,2-a]pyridine-3-carboxamide]	
≤ 50	Cc1nnc(N(C)S(=O)(=O)NC(=O)c2cnc3ccc(N4CCC[C@@H]4c4cc(F)ccc4OC4CCOCC4)cn23)s1 [Example 85, (R)-6-(2-(5-fluoro-2-((tetrahydro-2H-pyran-4-yl)oxy)phenyl)pyrrolidin-1-yl)-N—(N-methyl-N-(5-methyl-1,3,4-thiadiazol-2-yl)sulfamoyl)imidazo[1,2-a]pyridine-3-carboxamide]	
≤ 50	CCN(CC)S(=O)(=O)NC(=O)c1cnc2ccc(N3C[C@@H](F)C[C@@H]3c3cc(F)ccc3OC3CCOCC3)cn12 [Example 95, N—(N,N-diethylsulfamoyl)-6-((2R,4S)-4-fluoro-2-(5-fluoro-2-((tetrahydro-2H-pyran-4-yl)oxy)phenyl)pyrrolidin-1-yl)imidazo[1,2-a]pyridine-3-carboxamide]	
≤ 50	CN(CCF)S(=O)(=O)NC(=O)c1cnc2ccc(N3C[C@@H](F)C[C@@H]3c3cc(F)ccc3O[C@@H]3CCOC3)cn12 [Example 62, 6-((2R,4S)-4-fluoro-2-(5-fluoro-2-(((R)-tetrahydrofuran-3-yl)oxy)phenyl)pyrrolidin-1-yl)-N-(N-(2-fluoroethyl)-N-methylsulfamoyl)imidazo[1,2-a]pyridine-3-carboxamide]	
≤ 50	CN(CCF)S(=O)(=O)NC(=O)c1cnc2ccc(N3CCC[C@@H]3c3cc(F)ccc3F)cn12 [Example 38, (R)-6-(2-(2,5-difluorophenyl)pyrrolidin-1-yl)-N-(N-(2-fluoroethyl)-N-methylsulfamoyl)imidazo[1,2-a]pyridine-3-carboxamide]	
≤ 50	CCOCCN(C)S(=O)(=O)NC(=O)c1cnc2ccc(N3CCC[C@@H]3c3cc(F)ccc3OC3CCOCC3)cn12 [Example 83, (R)—N—(N-(2-ethoxyethyl)-N-methylsulfamoyl)-6-(2-(5-fluoro-2-((tetrahydro-2H-pyran-4-yl)oxy)phenyl)pyrrolidin-1-yl)imidazo[1,2-a]pyridine-3-carboxamide]	
≤ 50	Cc1ccc(N(C)S(=O)(=O)NC(=O)c2cnc3ccc(N4CCC[C@@H]4c4cc(F)ccc4OC4CCOCC4)cn23)nn1 [Example 87, (R)-6-(2-(5-fluoro-2-((tetrahydro-2H-pyran-4-yl)oxy)phenyl)pyrrolidin-1-yl)-N—(N-methyl-N-(6-methylpyridazin-3-yl)sulfamoyl)imidazo[1,2-a]pyridine-3-carboxamide]	
≤ 50	Cc1nnc(N(C)S(=O)(=O)NC(=O)c2cnc3ccc(N4C[C@@H](F)C[C@@H]4c4cc(F)ccc4O[C@@H]4CCOC4)cn23)s1 [Example 93, 6-((2R,4S)-4-fluoro-2-(5-fluoro-2-(((R)-tetrahydrofuran-3-yl)oxy)phenyl)pyrrolidin-1-yl)-N—(N-methyl-N-(5-methyl-1,3,4-thiadiazol-2-yl)sulfamoyl)imidazo[1,2-a]pyridine-3-carboxamide]	
≤ 50	CN(CCF)S(=O)(=O)NC(=O)c1cnc2ccc(N3C[C@@H](F)C[C@@H]3c3cc(F)ccc3OC3CCOCC3)cn12 [Example 99, 6-((2R,4S)-4-fluoro-2-(5-fluoro-2-((tetrahydro-2H-pyran-4-yl)oxy)phenyl)pyrrolidin-1-yl)-N—(N-(2-fluoroethyl)-N-methylsulfamoyl)imidazo[1,2-a]pyridine-3-carboxamide]	
